Series [1] in a line: Henderson-Hasselbalch calculation of percent in acid form. The settings on record: calculated; for Percent in Acid Form at pH 6.4: pH 6.4 (acidic areas of tumors); for Percent in Acid Form at pH 7.4: pH 7.4 (normal tissues). An excerpt: The interstitial space in normal tissues is generally at or very near pH 7.4, and in acidic areas of tumors a pH of around 6.4 is fairly typical or readily achievable by known methods. If one knows the pKa value of an acid substance (pKa is the pH at which the acid moiety is half ionized in aqueous solution) one can use the Henderson-Hasselbalch equation (pH=pKa+log [A−]/[HA]) to calculate what fraction of that substance will be in the acid form at any selected pH. […] It should be noted that for carboxyl-containing substances whose acid forms are water soluble, the pKa and pS values are quite similar.
In these calculations the Henderson-Hasselbalch equation was used to calculate the relative concentration of salt and acid forms at a given pH for a substance having acid moieties with a specified pKa or pS value. Then a binomial expansion was used to calculate the concentration of the all-acid form for an onco tool containing 2 or 3 pH-switch components.

Another series deals with tumors. As to conditions: tumor-bearing mice, reduction of about 0.3 pH units in the tumors; cited from earlier work.
A further series can be described thus: physchem. The protocol: In regard to initial testing, a simple pH titration of the prospective pH-switch structure in physiological saline is fast and easy and provides useful information about the key properties one is attempting to achieve.
Typically new structures that may be suitable as advanced pH-switch components are first assessed for their pS value. This entails preparing the sodium salt form of the structure and dissolving it at a concentration of 20 milliMolar in 15 ml of 0.15 Molar NaCl (deareated to remove CO2). […] A plot of pH versus volume of added HCl affords the pS value.
The sodium salts of compounds shown in FIG. 11a (designed to form internal acid-specific H-bond) and 11b (designed to form non-acid-specific H-bonds) were titrated in aqueous solution.

The term pKa denotes the pH at which an ionisable group is half protonated. Read a high pKa as a group that holds its proton tightly.

Several values for one entry are separate records, joined by “and”; a condition that tells them apart may be missing. Equal values may be shown once.

For the compound `O=C(O)CCCc1ccc(N(CCCl)CCCl)cc1` [Chlorambucil], in series [1], the “Percent in Acid Form at pH 6.4” value is 20.1% and the “Percent in Acid Form at pH 7.4” value was 2.4%. The “improvement in tumor growth delay” value with tumors is listed as 1.7 fold.

In turn, `CCCCCCCC(=O)O` [octanoic acid] came in with a pKa in “physchem” of 5.5.

Take `CCC(=O)O` [propionic acid]: in series [1], the “Percent in Acid Form at pH 6.4” value is recorded as 2.9% and the “Percent in Acid Form at pH 7.4” value is given as 0.3%.

With `CCC[N+]1([O-])CCC(C(=O)O)CC1` (stereo not shown) [structure iii in FIG. 15b, N-oxide of N-propylisonipocotic acid], the “minimum of first derivative of the titration curve (pH)” value in the series “physchem” (titrated in water / aqueous solution) was ~4.0 and ~5.6.
